Patent US6900219B2, “ABCA-1 elevating compounds” (CV Therapeutics, Inc., priority 2002, dated 2005)

The compounds below were run on ABCA-1 gene (assay: compounds tested and found to elevate cellular expression of the ABCA-1 gene (Examples 1-6; test not named)).
Format: cell-based
Experimental: Activity testing is conducted as described in those patents and patent applications referenced above, and in the Examples below, and by methods apparent to one skilled in the art.

| Compound | cellular expression of the ABCA-1 gene |
| --- | --- |
| CCCN(C(=O)Nc1ccc(Br)cc1)C(C)c1nc2cc(Cl)ccc2c(=O)n1-c1ccc(C)cc1 (stereo not drawn) [3-(4-bromo-phenyl)-1-[1-(7-chloro-4-oxo-3-p-tolyl-3,4-dihydro-quinazolin-2-yl)-ethyl]-1-propyl-urea] | elevate cellular expression of the ABCA-1 gene |
| Clc1ccc(-c2cc(-c3ccccc3)[nH]n2)cc1 [3-(4-chlorophenyl)-5-phenylpyrazole] | elevate cellular expression of the ABCA-1 gene |
| Fc1cccc(CSc2ncc3ccccn23)c1 [3-[(3-fluorophenyl)methylthio]-4-hydroimidazolo[1,5-a]pyridine] | elevate cellular expression of the ABCA-1 gene |
| Cc1ccc(-c2ccc3c(N)c(C#N)sc3n2)cc1 [3-amino-6-(4-methylphenyl)thiopheno[2,3-b]pyridine-2-carbonitrile] | elevate cellular expression of the ABCA-1 gene |
| O=C(CCC1CCCC1)Nc1ccc2c(c1)CCC2 [3-cyclopentyl-N-indan-5-ylpropanamide] | elevate cellular expression of the ABCA-1 gene |
| O=[N+]([O-])c1ccc(COc2ccc(C3SCCS3)cc2)cc1 [4-(1,3-dithiolan-2-yl)-1-[(4-nitrophenyl)methoxy]benzene] | elevate cellular expression of the ABCA-1 gene |
| Cc1ccc(-n2ncc(N(C)n3cccc3)c(Cl)c2=O)cc1 [4-chloro-2-(4-methylphenyl)-5-(methylpyrrolylamino)-2-hydropyridazin-3-one] | elevate cellular expression of the ABCA-1 gene |
| O=C(Nc1nccs1)c1ccc(C(F)(F)F)cc1 [4-trifluoromethylphenyl-N-(1,3-thiazol-2-yl)carboxamide] | elevate cellular expression of the ABCA-1 gene |
| CCOc1ccc(-n2c(C(C)N3CCN(C(=O)Nc4ccc(OC)cc4OC)CC3)nc3ccccc3c2=O)cc1 (stereo not drawn) [4-{1-[3-(4-ethoxyphenyl)-4-oxo-3,4-dihydro-quinazolin-2-yl]-ethyl}-piperazine-1-carboxylic acid (2,4-dimethoxy-phenyl)-amide] | elevate cellular expression of the ABCA-1 gene |
| CCCOc1nc(-c2ccc(Cl)cc2Cl)n(S(=O)(=O)Cc2ccccc2)n1 [5-(2,4-dichlorophenyl)-1-[benzylsulfonyl]-3-propoxy-1,2,4-triazole] | elevate cellular expression of the ABCA-1 gene |
| Cc1ccc(-c2ncc(-c3ccc(Cl)cc3)o2)cc1 [5-(4-chlorophenyl)-2-(4-methylphenyl)-1,3-oxazole] | elevate cellular expression of the ABCA-1 gene |
| CCc1c(C(=O)NCc2ccco2)cnn1-c1nc(-c2ccc(C)cc2)cs1 [5-ethyl-1-(4-p-tolyl-thiazol-2-yl)-1H-pyrazole-4-carboxylic acid (furan-2-ylmethyl)-amide] | elevate cellular expression of the ABCA-1 gene |
| CCc1c(C(=O)NCc2ccco2)cnn1-c1nc(-c2ccc(OC)cc2)cs1 [5-ethyl-1-[4-(4-methoxy-phenyl)-thiazol-2-yl]-1H-pyrazole-4-carboxylic acid (furan-2-ylmethyl)-amide] | elevate cellular expression of the ABCA-1 gene |
| Cc1ccc(-c2csc(-n3ncc(C(=O)NC(C)c4ccccc4)c3C(C)C)n2)cc1 (stereo not drawn) [5-isopropyl-1-(4-p-tolyl-thiazol-2-yl)-1H-pyrazole-4-carboxylic acid (1-phenyl-ethyl)-amide] | elevate cellular expression of the ABCA-1 gene |
| Cc1ccc(-c2csc(-n3ncc(C(=O)NCCC(C)C)c3C(C)C)n2)cc1 [5-isopropyl-1-(4-p-tolyl-thiazol-2-yl)-1H-pyrazole-4-carboxylic acid (3-methyl-butyl)-amide] | elevate cellular expression of the ABCA-1 gene |
| Cc1ccc(-c2csc(-n3ncc(C(=O)NC4CC4)c3C(C)C)n2)cc1 [5-isopropyl-1-(4-p-tolyl-thiazol-2-yl)-1H-pyrazole-4-carboxylic acid cyclopropylamide] | elevate cellular expression of the ABCA-1 gene |
| Cc1ccc(-c2csc(-n3ncc(C(=O)NCCc4ccccc4)c3C)n2)cc1 [5-methyl-1-(4-p-tolyl-thiazol-2-yl)-1H-pyrazole-4-carboxylic acid phenethyl-amide] | elevate cellular expression of the ABCA-1 gene |
| O=[N+]([O-])c1ccc(-c2cnc3ccc(Cl)cn23)cc1 [6-chloro-3-(4-nitrophenyl)-4-hydroimidazolo[1,2-a]pyridine] | elevate cellular expression of the ABCA-1 gene |
| Cc1ccc2nc3c(nc2c1)-c1ccccc1C3=O [7-methylindeno[2,3-b]quinoxalin-1′-one] | elevate cellular expression of the ABCA-1 gene |
| CSC(N)=N/N=C/c1ccc(Cl)cc1 [(1 Z,3E)-2,3-diaza-4-(4-chlorophenyl)-1-methylthiobuta-1,3-dienylamine] | elevate cellular expression of the ABCA-1 gene |
| COc1ccc(C(=O)O/N=C(/N)c2cccnc2)cc1 [(1E)-2-amino-1-aza-2-(3-pyridyl)vinyl 4-methoxybenzoate] | elevate cellular expression of the ABCA-1 gene |

| Compound | cellular expression of the ABCA-1 gene |
| --- | --- |
| COc1ccc(/C(N)=N\OC(=O)c2ccccc2OC)cc1 [(1E)-2-amino-1-aza-2-(4-methoxyphenyl)vinyl 2-methoxybenzoate] | elevate cellular expression of the ABCA-1 gene |
| O=C(Nc1nc2c(Cl)cccc2s1)c1ccc2c(c1)OC(F)(F)O2 [(2,2-difluorobenzo[3,4-d]1,3-dioxolen-5-yl)-N-(4-chlorobenzothiazol-2-yl)carboxamide] | elevate cellular expression of the ABCA-1 gene |
| O=C(NC1=NCCS1)c1ccc(Cl)cc1Cl [(2,4-dichlorophenyl)-N-(1,3-thiazolin-2-yl)carboxamide] | elevate cellular expression of the ABCA-1 gene |
| O=C(Nc1nc(-c2ccc3ccccc3c2)cs1)c1ccc(F)cc1F [(2,4-difluorophenyl)-N-(4-(2-naphthyl)(1,3-thiazol-2-yl))carboxamide] | elevate cellular expression of the ABCA-1 gene |
| O=C(Nc1ncc(-c2ccccc2)s1)c1ccc(F)cc1F [(2,4-difluorophenyl)-N-(5-phenyl(1,3-thiazol-2-yl)) carboxamide] | elevate cellular expression of the ABCA-1 gene |
| O=C(Nc1nc(-c2ccc(Cl)cc2)cs1)c1ccc(F)cc1F [(2,4-difluorophenyl)-N-[4-(4-chlorophenyl)(1,3-thiazol-2-yl)]carboxamide] | elevate cellular expression of the ABCA-1 gene |
| Cc1cc(C(=O)Nc2ncc(-c3ccccc3)s2)c(C)o1 [(2,5-dimethyl(3-furyl))—N-(5-phenyl(1,3-thiazol-2-yl))carboxamide] | elevate cellular expression of the ABCA-1 gene |
| Nc1ccccc1C(=O)Nc1ccc(Cl)cc1 [(2-aminophenyl)-N-(4-chlorophenyl)carboxamide] | elevate cellular expression of the ABCA-1 gene |
| Cc1ccc(NC(=O)c2ccccc2N)cc1 [(2-aminophenyl)-N-(4-methylphenyl)carboxamide] | elevate cellular expression of the ABCA-1 gene |
| O=C(NCCc1ccccn1)c1ccc([N+](=O)[O-])cc1Cl [(2-chloro-4-nitrophenyl)-N-(2-(2-pyridyl)ethyl)carboxamide] | elevate cellular expression of the ABCA-1 gene |
| O=C(NCCc1ccccn1)c1ccccc1Cl [(2-chlorophenyl)-N-(2-(2-pyridyl)ethyl)carboxamide] | elevate cellular expression of the ABCA-1 gene |
| O=C(Nc1ccc(Cl)cc1)c1ccccc1Cl [(2-chlorophenyl)-N-(4-chlorophenyl)carboxamide] | elevate cellular expression of the ABCA-1 gene |
| O=C(NNC(=S)Nc1ccccc1Cl)c1ccccc1Cl [(2-chlorophenyl)-N-({[(2-chlorophenyl)amino]thioxomethyl}amino)carboxamide] | elevate cellular expression of the ABCA-1 gene |
| O=C(NC1=NCCS1)c1ccccc1F [(2-fluorophenyl)-N-(1,3-thiazolin-2-yl)carboxamide] | elevate cellular expression of the ABCA-1 gene |
| Cc1ccc2cc(NC(=O)c3ccccc3F)ccc2n1 [(2-fluorophenyl)-N-(2-methyl(6-quinolyl))carboxamide] | elevate cellular expression of the ABCA-1 gene |
| O=C1CSC(NC(=O)c2ccccc2C(F)(F)F)=N1 [(2-trifluoromethylphenyl)-N-(4-oxo(1,3-thiazolin-2-yl))carboxamide] | elevate cellular expression of the ABCA-1 gene |
| CCN(CCCN(CC)c1nc2cc(C(=O)Nc3ccc(OC)cc3)ccc2o1)C(=O)c1ccoc1 [(2-{ethyl[3-(N-ethyl-3-furylcarbonylamino)propyl]amino}benzoxazol-5-yl)-N-(4-methoxyphenyl)carboxamide] | elevate cellular expression of the ABCA-1 gene |
| Cc1ccc2nc(/C(C#N)=C/c3ccco3)[nH]c2c1 [(2E)-3-(2-furyl)-2-(5-methylbenzimidazol-2-yl)prop-2-enenitrile] | elevate cellular expression of the ABCA-1 gene |
| O=C(/C=C/c1ccccc1)NCCN(C(=O)Nc1cccc(C(F)(F)F)c1)c1ccccc1 [(2E)-3-phenyl-N-[2-(phenyl {N-[3-(trifluoromethyl)phenyl]carbamoyl}amino)ethyl]prop-2-enamide] | elevate cellular expression of the ABCA-1 gene |
| O=C(Nc1cccc(Cl)c1)Nc1ccc2c(c1)OCCO2 [(2H,3H-benzo[e]1,4-dioxin-6-ylamino)-N-(3-chlorophenyl)lcarboxamide] | elevate cellular expression of the ABCA-1 gene |
| O=C(Nc1ccc2c(c1)OCCO2)NC1CCCCC1 [(2H,3H-benzo[e]1,4-dioxin-6-ylamino)-N-cyclohexylcarboxamide] | elevate cellular expression of the ABCA-1 gene |
